Results reported in patent US12110286B2, “Benzimidazolone derived inhibitors of BCL6” (Cancer Research Technology Limited, priority 2017, dated 2024).

How the values were obtained:
[1] = test system: SU-DHL-4 cells; experiment: 14-day cell proliferation assay (CellTiter Glo); type: cell-based; details: Homo sapiens, SU-DHL-4, 336 h; SU-DHL4 cells, 14 days
Protocol: 14-Day Cell Proliferation Assay
SU-DHL-4 cells were seeded in 96-well culture plates at a density of 2000 cells/well in RPMI-1640 medium (Sigma-Aldrich) supplemented with 10% FBS (Gibco). Compounds were initially dispensed into 96-well U-bottom plates using an Echo 550 acoustic dispenser (Labcyte Inc.), then diluted in RPMI-1640 medium and transferred onto the cells. Cells were treated with 8 compound concentrations in duplicate, ranging from 1 nM to 10 μM, in a final DMSO concentration of 0.1% and final volume of 100 μl. Cells were incubated with compound for 14 days, with medium changes at days 3, 7 and 10 carried out as follows: fresh 96-well cell culture plates were prepared containing 100 μl medium plus compound at the assay concentrations (white plates were used on day 10 to optimise luminescence measurement). Assay plates containing cells were vortexed to mix and cell density in one control well was counted using a Coulter Z2 cell counter (Beckman Coulter). The volume of medium containing 2000 cells in the control well was calculated and this volume of cells was transferred from every well of the assay plates to the corresponding well of the fresh plates containing compound. After 14 days, CellTiter Glo reagent (Promega) was added to the medium in each well of the assay plate at a ratio of 1:2, mixed on a plate shaker, then incubated at room temperature for 10 minutes. Luminescence was measured using an Envision plate reader (Perkin Elmer) and the relative luminescence at each compound concentration, compared to DMSO alone, was calculated. G150 were determined using a 4-parameter curve fit in Dotmatics (Bishops Stortford, UK).

[2] = target: endogenous BCL6 protein (Homo sapiens (Human), UniProt P41182); experiment: Immunofluorescence-based BCL6 degradation assay; type: cell-based; details: 2 hours with compound
Protocol: Immunofluorescence-Based BCL6 Degradation Assay
DC50 values (compound concentration at which 50% of endogenous BCL6 protein is degraded) were determined in SUDHL-4 cells (American Type Culture Collection) in an immunofluorescence-based assay using an InCell2200 high content imaging system (GE Healthcare). […] After 20 hours cell culture at 37° C./CO2 incubator, compounds were dispensed in the cell culture plate using ECHO550 acoustic dispenser (Labcyte, Inc.), as 8 point-concentration response (ranging from 5 nM to 10 μM) in 0.67% final DMSO concentration. Cells were incubated with compound for 2 hours at 37° C./CO2 incubator followed by fixation in 4.5% formaldehyde (37% formaldehyde solution, Sigma catalogue F8775) at room temperature for 15 min. […] Blocking and cell permeabilisation were performed by incubating the fixed cells for 1 hour at room temperature in 1×TBS, 5% BSA, 1% Triton X100, followed by three washes on PW384 plate washer. Primary and secondary antibodies were prepared in 1×TBS, 1% BSA, 0.2% Triton X100. […] After incubation in each antibody, cells were washes four times in 1×TBS-0.05% tween on PW384 plate washer. Cells were finally incubated for 60 min with nuclear staining RedDot2 dye (Biotium) at 0.5× the stock concentration in 1×TBS. BCL6 expression in the absence or presence of compound was detected on InCell2200 with 20× objective and quantified on InCell Analyser 3.7.2 workstation (GE Healthcare). The % response at each concentration was calculated by normalising BCL6 expression in the presence of compound to the appropriate high (DMSO) and low (DMSO with 7 μM CCT369260) controls.

[3] = target: Trx-6×His-BCL6 (human BCL6 BTB domain covering amino-acid sequence 5-129) (Homo sapiens (Human), UniProt P41182); experiment: HTRF in vitro assay (BCL6 / BCOR-AF633 peptide); type: binding; details: further generated data, 1 nM Trx-6×His-BCL6, 300 nM BCOR-AF633 peptide, 0.5 nM anti-6×His-Terbium cryptate; for IC50: read-out: HTRF pIC50 (converted)
Protocol: The % inhibition at each concentration was calculated by normalising FRET ratio to the appropriate high (DMSO with all reagents) and low (DMSO without BCL6) controls.

Row | SMILES | GI50 [1] [nM] | Degradation assay in SU-DHL4 cells (pDC50) [2] | HTRF pIC50 [3] | IC50 [3] [nM]
1 | Cn1c(=O)n(CCC(C)(C)O)c2cc(Nc3nc(N4CCC(F)(F)C(CO)C4)ncc3Cl)ccc21 (stereo not shown) [Example 35a, 5-((5-chloro-2-(4,4-difluoro-3-(hydroxymethyl)piperidin-1-yl)pyrimidin-4-yl)amino)-3-(3-hydroxy-3-methylbutyl)-1-methyl-1,3-dihydro-2H-benzo[d]imidazol-2-one] | 1140 | – | – | –
2 | COCC1CN(c2ncc(Cl)c(Nc3ccc4c(c3)n(CCC(C)(C)O)c(=O)n4C)n2)CCC1(F)F (stereo not shown) [Example 35b, 5-((5-chloro-2-(4,4-difluoro-3-(methoxymethyl)piperidin-1-yl)pyrimidin-4-yl)amino)-3-(3-hydroxy-3-methylbutyl)-1-methyl-1,3-dihydro-2H-benzo[d]imidazol-2-one] | 1840 | 6.35 | 6.70 | –
3 | CC1CN(c2ncc(Cl)c(Nc3ccc4c(c3)n(CCC(C)(C)O)c(=O)n4C)n2)CCC1(F)F (stereo not shown) [Example 35c, 5-((5-chloro-2-(4,4-difluoro-3-methylpiperidin-1-yl)pyrimidin-4-yl)amino)-3-(3-hydroxy-3-methylbutyl)-1-methyl-1,3-dihydro-2H-benzo[d]imidazol-2-one] | 440 | 6.75 | 6.53 | –
4 | C[C@@H]1C[C@H](C)CN(c2ncc(Cl)c(Nc3ccc4c(c3)n(CCC(C)(C)O)c(=O)n4C)n2)C1 [Example 20e] | 350 | – | – | –
5 | C[C@@H]1CN(c2ncc(Cl)c(Nc3ccc4c(c3)n(CCC(C)(C)O)c(=O)n4CCC(C)(C)O)n2)C[C@H](C)C1(F)F [Example 35j, 5-((5-chloro-2-((3R,5S)-4,4-difluoro-3,5-dimethylpiperidin-1-yl)pyrimidin-4-yl)amino)-1,3-bis(3-hydroxy-3-methylbutyl)-1,3-dihydro-2H-benzo[d]imidazol-2-one] | 760 | 6.43 | – | 1740
6 | Cn1c(=O)n(CCC(C)(C)O)c2cc(Nc3nc(N4CCCC(C(F)(F)F)C4)ncc3Cl)ccc21 (stereo not shown) [Example 20h] | – | 6.30 | 6.49 | –
7 | Cn1c(=O)n(CCC(C)(C)O)c2cc(Nc3nc(N4CCC(F)(F)CC4)ncc3Cl)ccc21 [Example 35d, 5-((5-chloro-2-(4,4-difluoropiperidin-1-yl)pyrimidin-4-yl)amino)-3-(3-hydroxy-3-methylbutyl)-1-methyl-1,3-dihydro-2H-benzo[d]imidazol-2-one] | 1130 | 6.59 | 6.48 | –
8 | CC1CCCN(c2ncc(Cl)c(Nc3ccc4c(c3)n(CCC(C)(C)O)c(=O)n4C)n2)C1.O=CO (stereo not shown) [Example 20g] | 750 | 6.29 | 6.07 | –
9 | C[C@@H]1CN(c2ncc(Cl)c(Nc3ccc4c(c3)n(CCC(C)(C)O)c(=O)n4C)n2)C[C@H](C)C1(F)F [Example 20a, 5-((5-chloro-2-((3R,5S)-4,4-difluoro-3,5-dimethylpiperidin-1-yl)pyrimidin-4-yl)amino)-3-(3-hydroxy-3-methylbutyl)-1-methyl-1,3-dihydro-2H-benzo[d]imidazol-2-one] | 70 | – | – | –
10 | Cn1c(=O)n(CCC(C)(C)O)c2cc(Nc3cc(N4CCC(F)(F)CC4)ncc3Cl)ccc21 [Example 36a, 5-((5-chloro-2-(4,4-difluoropiperidin-1-yl)pyridin-4-yl)amino)-3-(3-hydroxy-3-methylbutyl)-1-methyl-1,3-dihydro-2H-benzo[d]imidazol-2-one] | – | 6.35 | – | 813
